Measured values taken from patent US4816247A, “Emulsion compositions for administration of sparingly water soluble ionizable hydrophobic drugs” (American Cyanamid Company, priority 1985, dated 1989).
Values after ≈ are worked out from the molar mass of the structure shown. “Also recorded” adds a separate entry of the source. Counter-ions that a name gives are not always drawn.

Key:
[1] = test system: marginal ear vein of rabbits; test: Peripheral vein irritation, intravenous infusion in marginal ear vein of rabbits, gross postmortem findings; format: in vivo, rabbit; design: key to External: Reddened / External: Yellow Deposit / Subcutaneous: Hemorrhage / Vascular Lumen: Yellow Deposit / External: Swollen / Subcutaneous: Edema / Subcutaneous: Yellow Deposit / Vascular Lumen: Blood Clot: +: Positive or present.; -: Negative or absent
Method: (§1) The emulsin drug delivery system formulation of Emulsion 3 in Table III was tested in two species of animals, for peripheral vein irritation in order to determine the occurrence of local injection site adverse reactions. Also tested was a 1.0 mg/ml solution of bisantrene hydrochloride in 5% dextrose/water and a composition of the Emulsion 3 vehicle without bisantrene base. The two species of animals used were rabbits and dogs. The formulations were given intravenously in a peripheral vein using a Butterfly infusion set (Becton, Dickinson Co., Inc., Rutherford, N.J). The marginal ear vein was used in the rabbit and the saphenous or the cephalic vein of the leg was used in the dog.
(§2) The formulations were given below by slow intravenous infusion using a Sage syringe pump (Sage Instruments, Orion Research Inc., Cambridge, Ma.) over a 2 hour period. The animals were restrained but unanesthetized during the infusion. After the infusion, the animals were returned to their cages and offered food. The animals were sacrificed one day after the infusion.
(§3) At sacrifice, the infused vein was opened from the point of infusion and cardiad for several centimeters. […] FIGS. 3, 4 and 5 are comprised of representative photographs of the opened peripheral veins of dogs as hereinabove described and verify the findings stated above.

[2] = test system: dogs; test: Clinical signs and injection site findings, repeated intravenous infusion in dogs; settings: dog
[3] = test system: peripheral vein of dogs; test: Peripheral vein irritation, intravenous infusion in peripheral vein of dogs, gross postmortem findings; format: in vivo, dog
Method: as §1, §2, §3

[4] = test system: white blood cell counts; test: Group mean white blood cell counts, repeated intravenous infusion in dogs; format: in vivo; settings: dog
Method: A comparison study of the group mean white blood cell counts (WBC×10^-3) was conducted separately for both the male and female animals in each group. The WBC counts of all animals were performed 7 days before dosing. Doses were administered on days 0, 21 and 42, whereas additional WBC counts on all animals were made on days 3, 7, 14, 20, 24, 28, 35, 41, 45, 49 and 56. The mean data from this test are recorded in Table VI and the group mean white blood cell counts for males and females are plotted separately in FIGS. 6 and 7 respectively.

[5] = test system: soft tissues / vein; settings: cited from earlier work
[6] = format: physicochemical
Method: (§4) Because the antiarthritic triazine compound is a base, organic acids as counter-ions were studied to improve drug solubility. […] Additional drug complexes were prepared with various organic and inorganic acids. […] The inherent insolubility of the drug appears to be responsible, to some extent, for the preceding results. In order to overcome the drug insolubility problem one of the objectives considered was to design a dosage form which would improve drug absorption when given by intravenous, intramuscular or intra-articular injection.

[7] = Absorption and excretion of antiarthritic triazine compound, candidate dosage forms; settings: in vivo
Method: as §4

[8] = commercial product solution; cited from earlier work
[9] = Solubility of bisantrene base and its oleate ion-pair in water, oils and emulsions; format: physicochemical; settings: in words
Excerpt: Bisantrene base is insoluble in water, oils, oil phase of emulsions or preformed commercial, nutritional emulsions such as Intralipid® and Liposyn®. When Bisantrene base forms an ion-pair with oleic acid the solubility of Bisantrene increases in oils or oil phases of emulsions. Additionally, Bisantrene-oleate ion-pair acts as a surfactant, becomes part of an interfacial emulsion film and stabilizes the emulsion in vitro.

[10] = test system: plasma protein; settings: cited from earlier work
[11] = test system: erythrocytes; test: Partitioning of bisantrene in blood; format: in vitro ADME; settings: in words
Excerpt: (§5) In serum and plasma, however due to increase in the pH the solubility drops considerably and this may be the reason that the drug precipitates at the point of infusion. […] Thus, if the drug can be kept in solution long enough to allow complete dilution in the entire blood volume, then the partitioning should take place without the intermediate precipitation.

[12] = Solubility of bisantrene in selected media and biological fluids (Table IB, FIGS. 1 and 2); format: physicochemical; settings: in words
Excerpt: as §5

[13] = rabbit, female, 2 h i.v. infusion
[14] = rabbit, male, 2 h i.v. infusion

## C(=N\NC1=NCCN1)/c1c2ccccc2c(/C=N/NC2=NCCN2)c2ccccc12 [Bisantrene HCl]
[1]; marginal ear vein of rabbits
  yellow or yellow-orange deposits in vascular-lumen: yellow or yellow-orange deposits which result
[1]; [13]
  External: Reddened: +
  External: Yellow Deposit: +
  Subcutaneous: Hemorrhage: -
  Vascular Lumen: Yellow Deposit: +
[1]; [14]
  External: Reddened: -
  External: Swollen: -
  External: Yellow Deposit: -
  Subcutaneous: Edema: +
  Subcutaneous: Hemorrhage: -
  Subcutaneous: Yellow Deposit: -
  Vascular Lumen: Blood Clot: -
  Vascular Lumen: Yellow Deposit: +
[2]; 10 mg/kg, about 2 h infusion
  clinical signs during the intravenous infusion: none was apparent
  swelling of the infused leg: three
[2]; conclusion of study
  local injection site deposits or binding of the drug, inflammation and phlebitis: present
[3]; FIGS. 3A, 3B, 4A, 5A, listed as bisantrene hydrochloride
  yellow-orange deposit in vascular-lumen, photograph of dog vein: clearly shows the yellow-orange deposits in the vascular-lumen
[3]; peripheral vein of dogs
  yellow or yellow-orange deposits in vascular-lumen: yellow or yellow-orange deposits which result
[4]; female, day 3, 10 mg/kg i.v. on days 0, 21, 42
  group mean white blood cell count: 6.3 WBC × 10^-3
[4]; female, day 7, 10 mg/kg i.v. on days 0, 21, 42
  group mean white blood cell count: 4.5 WBC × 10^-3
[4]; female, day 14, 10 mg/kg i.v. on days 0, 21, 42
  group mean white blood cell count: 8.6 WBC × 10^-3
[4]; female, day 20, 10 mg/kg i.v. on days 0, 21, 42
  group mean white blood cell count: 10.5 WBC × 10^-3
[4]; female, day 24, 10 mg/kg i.v. on days 0, 21, 42
  group mean white blood cell count: 5.1 WBC × 10^-3
[4]; female, day 28, 10 mg/kg i.v. on days 0, 21, 42
  group mean white blood cell count: 4.1 WBC × 10^-3
[4]; female, day 35, 10 mg/kg i.v. on days 0, 21, 42
  group mean white blood cell count: 13.0 WBC × 10^-3
[4]; female, day 41, 10 mg/kg i.v. on days 0, 21, 42
  group mean white blood cell count: 9.7 WBC × 10^-3
[4]; female, day 45, 10 mg/kg i.v. on days 0, 21, 42
  group mean white blood cell count: 5.1 WBC × 10^-3
[4]; female, day 49, 10 mg/kg i.v. on days 0, 21, 42
  group mean white blood cell count: 6.0 WBC × 10^-3
[4]; female, day 56, 10 mg/kg i.v. on days 0, 21, 42
  group mean white blood cell count: 13.2 WBC × 10^-3
[4]; female, day -7 (before dosing)
  group mean white blood cell count: 10.1 WBC × 10^-3
[4]; male, day 3, 10 mg/kg i.v. on days 0, 21, 42
  group mean white blood cell count: 7.0 WBC × 10^-3
[4]; male, day 7, 10 mg/kg i.v. on days 0, 21, 42
  group mean white blood cell count: 3.7 WBC × 10^-3
[4]; male, day 14, 10 mg/kg i.v. on days 0, 21, 42
  group mean white blood cell count: 11.1 WBC × 10^-3
[4]; male, day 20, 10 mg/kg i.v. on days 0, 21, 42
  group mean white blood cell count: 10.8 WBC × 10^-3
[4]; male, day 24, 10 mg/kg i.v. on days 0, 21, 42
  group mean white blood cell count: 5.1 WBC × 10^-3
[4]; male, day 28, 10 mg/kg i.v. on days 0, 21, 42
  group mean white blood cell count: 2.9 WBC × 10^-3
[4]; male, day 35, 10 mg/kg i.v. on days 0, 21, 42
  group mean white blood cell count: 13.5 WBC × 10^-3
[4]; male, day 41, 10 mg/kg i.v. on days 0, 21, 42
  group mean white blood cell count: 11.3 WBC × 10^-3
[4]; male, day 45, 10 mg/kg i.v. on days 0, 21, 42
  group mean white blood cell count: 5.3 WBC × 10^-3
[4]; male, day 49, 10 mg/kg i.v. on days 0, 21, 42
  group mean white blood cell count: 3.3 WBC × 10^-3
[4]; male, day 56, 10 mg/kg i.v. on days 0, 21, 42
  group mean white blood cell count: 12.8 WBC × 10^-3
[4]; male, day -7 (before dosing)
  group mean white blood cell count: 11.3 WBC × 10^-3

## C(=N\NC1=NCCN1)/c1c2ccccc2c(/C=N/NC2=NCCN2)c2ccccc12 [bisantrene dihydrochloride]
[5]; aqueous solution i.v. in mammals
  problem likely to occur on intravenous injection: chemical phlebitis

## CC(C)(C)C(C)(C)Nc1nc(NC(C)(C)C(C)(C)C)nc(N2CC3CCC(CC3)C2)n1 [Antiarthritic Triazine Compound, 3-[4,6-bis[(1,1-2,2-tetramethylpropyl)amino]-s-triazin-2-yl]-3-azabicyclo[3.2.2]nonane]
[6]
  Solubility: 300 µg/mL (≈ 697 µM)
  increase of solubility not more than: 500 to 1000 µg/mL
  solubility in water: insignificant solubility in water
[7]
  parenteral absorption of the drug: negligible
[7]; po
  oral absorption: slightly better

## CC(=O)Nc1ccc(OCC(O)CNC(C)C)cc1 (centres unmarked) [Eraldin, practolol]
[8]
  Ambient Solution pH: 5.80

## COc1cccc2c1C(=O)c1c(O)c3c(c(O)c1C2=O)C[C@@](O)(C(=O)CO)C[C@@H]3O[C@H]1C[C@H](N)[C@H](O)[C@H](C)O1 [Adriamycin, Doxorubicin]
[5]; intravenous administration in cancer therapy
  effect of extravasation into the soft tissues: massive tissue necrosis about the site of the attempted intravenous administration

## C(=NNC1=NCCN1)c1c2ccccc2c(C=NNC2=NCCN2)c2ccccc12 [Bisantrene-oleate ion-pair]
[9]; ion-pair with oleic acid
  solubility in oils or oil phases of emulsions: increases

## CCCCCCCC/C=C\CCCCCCCC(=O)O [oleic acid]
[10]
  molecules bound with one molecule of typical plasma protein: nine

## CC(C)NCC(O)COc1cccc2ccccc12 (racemic) [Inderal, propanolol]
[8]
  Ambient Solution pH: 3.50

## C[C@H](N)[C@H](O)c1cccc(O)c1 [Aramine, metaraminol]
[8]
  Ambient Solution pH: 3.60

## C(=N\NC1=NCCN1)/c1c2ccccc2c(/C=N/NC2=NCCN2)c2ccccc12 [Bisantrene, bis(2-imidazolin-2-ylhydrazone)-9,10-anthracenedicarboxaldehyde]
[11]
  partitioning in blood: eventually partitions into the erythrocytes which then serve as slow release carriers
[9]
  solubility in water, oils, oil phase of emulsions or preformed commercial nutritional emulsions: insoluble
[12]; compared with plasma and serum
  solubility in whole blood: much greater than in plasma and serum
[12]
  solubility characteristics of bisantrene: very sensitive to temperature changes, pH, and various solutes; also recorded: quite soluble in media useful as candidates for I.V. infusions such as normal saline and 5% dextrose

## OCCOCCN1CCN(C(c2ccccc2)c2ccc(Cl)cc2)CC1 (centres unmarked) [Atarax, hydroxyzine]
[8]
  Ambient Solution pH: 5.60
